Laboratory results: paper PMC9486086, “Development of a UPLC-MS/MS method for the determination of orelabrutinib in rat plasma and its application in pharmacokinetics” (Frontiers in Pharmacology, 2022)
Where two headings read alike, the source gives them in different places.

Assays:
[1] = Stability of orelabrutinib in rat plasma under storage and analytical conditions; assay type: in vitro ADME; conditions: for Measured concentration, Mean ± SD / RE (relative error vs nominal): n = 5
Protocol: To investigate the stability of orelabrutinib in rat plasma, QC plasma samples of three concentrations were placed in different environments to examine the short-term, long-term, three freeze-thaw cycles and stability at 10°C. Short-term stability was determined by placing plasma samples at room temperature for at least 3 h. Long-term stability was determined by testing plasma samples after 21 days of storage at −80°C. The stability of the plasma samples was evaluated by measuring the stability of three freeze-thaw cycles from freezing (−80°C) to thawing (room temperature) three times. In addition, the stability was determined by storing the prepared plasma samples in an autosampler (10°C) for 4 h.

[2] = Pharmacokinetic study in rats after single oral dose (UPLC-MS/MS, non-compartmental analysis); assay type: in vivo; conditions: male, Sprague-Dawley, rat, plasma, single oral dose of 10 mg/kg, n = 6, mean ± SD
Text: Six male Sprague-Dawley (SD) Rats (weighing 250 ± 20 g) were obtained from the Laboratory Animal Center of The First Affiliated Hospital of Wenzhou Medical University (Zhejiang, China). They were housed in an environmentally controlled rearing chamber and given food and water that met the standard for 1 week. The animal experiment was approved by the Ethics Committee for the Protection and Use of Laboratory Animals of The First Affiliated Hospital of Wenzhou Medical University (Zhejiang, China).
The rats were fasted for 12 h before the start of the experiment and were given free access to water. Oral gavage was administered to rats at a dose of 10 mg/kg of orelabrutinib dissolved in 0.5% sodium carboxymethylcellulose (CMC-Na). Blood was collected at different collection points at 0.333, 0.667, 1, 1.5, 2, 3, 4, 6, 8, 12, 24 and 48 h after administration. After collected, blood in centrifuge tube was centrifuged for 10 min at 13,000 × g at room temperature, and 100 μl of plasma was separated and stored at −80°C prior to analysis. The concentrations of the analyte were determined using this validated UPLC-MS/MS method, while the non-compartmental model was analyzed using DAS 2.0 software (Drug and Statistical Software of the Shanghai Mathematical Pharmacology Professional Committee, China), and pharmacokinetic parameters were calculated.

[3] = design: method as in Zhang et al., 2020; conditions: oral, ref Zhang et al., 2020, cited from earlier work
[4] = prepared plasma samples, autosampler 10°C for 4 h, nominal 2 ng/ml
[5] = prepared plasma samples, autosampler 10°C for 4 h, nominal 200 ng/ml
[6] = prepared plasma samples, autosampler 10°C for 4 h, nominal 1600 ng/ml
[7] = rat plasma, 21 days at −80°C, nominal 2 ng/ml
[8] = rat plasma, 21 days at −80°C, nominal 200 ng/ml
[9] = rat plasma, 21 days at −80°C, nominal 1600 ng/ml
[10] = rat plasma, room temperature at least 3 h, nominal 2 ng/ml
[11] = rat plasma, room temperature at least 3 h, nominal 200 ng/ml
[12] = rat plasma, three freeze-thaw cycles (−80°C to room temperature), nominal 2 ng/ml
[13] = rat plasma, three freeze-thaw cycles (−80°C to room temperature), nominal 200 ng/ml
[14] = rat plasma, three freeze-thaw cycles (−80°C to room temperature), nominal 1600 ng/ml

SMILES: C=CC(=O)N1CCC(c2ccc(C(N)=O)c(-c3ccc(Oc4ccccc4)cc3)n2)CC1 [Orelabrutinib]
- Measured concentration, Mean ± SD [1, 4]: 2.0 ± 0.1 ng/mL
- RE (relative error vs nominal) [1, 4]: −0.2%
- Measured concentration, Mean ± SD [1, 5]: 208.0 ± 5.3 ng/mL
- RE (relative error vs nominal) [1, 5]: 4.0%
- Measured concentration, Mean ± SD [1, 6]: 1649.2 ± 25.3 ng/mL
- RE (relative error vs nominal) [1, 6]: 3.1%
- Measured concentration, Mean ± SD [1, 7]: 2.1 ± 0.1 ng/mL
- RE (relative error vs nominal) [1, 7]: 5.4%
- Measured concentration, Mean ± SD [1, 8]: 212.6 ± 7.3 ng/mL
- RE (relative error vs nominal) [1, 8]: 6.3%
- Measured concentration, Mean ± SD [1, 9]: 1389.2 ± 147.3 ng/mL
- RE (relative error vs nominal) [1, 9]: −13.2%
- Measured concentration, Mean ± SD [1, 10]: 2.1 ± 0.1 ng/mL
- RE (relative error vs nominal) [1, 10]: 6.1%
- Measured concentration, Mean ± SD [1, 11]: 199.3 ± 4.8 ng/mL
- RE (relative error vs nominal) [1, 11]: −0.4%
- Measured concentration, Mean ± SD ([1]; rat plasma, room temperature at least 3 h, nominal 1600 ng/ml): 1603.9 ± 24.6 ng/mL
- Measured concentration, Mean ± SD [1, 12]: 2.0 ± 0.1 ng/mL
- RE (relative error vs nominal) [1, 12]: 1.0%
- Measured concentration, Mean ± SD [1, 13]: 220.3 ± 8.5 ng/mL
- RE (relative error vs nominal) [1, 13]: 10.2%
- Measured concentration, Mean ± SD [1, 14]: 1773.7 ± 57.6 ng/mL
- RE (relative error vs nominal) [1, 14]: 10.9%
- Stability in plasma samples (in words) ([1]; rat plasma, room temperature, 10°C, three freeze (−80°C)/thaw (RT) cycles, −80°C for 21 days): stable
- AUC(0-inf) [2]: 3600 ± 1540 ng·h/mL
- AUC(0-t) [2]: 3590 ± 1540 ng·h/mL
- Cmax [2]: 1930 ± 1030 ng/mL
- Tmax [2]: 0.56 ± 0.17 h
- half-life [2]: 8.25 ± 5.64 h
- Dose dependence of AUC and Cmax ([3]; 64 healthy subjects, single 20-400 mg or multiple doses for 14 days): increased proportionally
- Cmax ([3]; healthy subjects, dose not stated): ~300 ng/mL
